Source: US20080311126A1, “Antisense Oligonucleotides Directed to Ribonucleotide Reducatase R2 and Uses Thereof in Combination Therapies for the Treatment of Cancer” (Genesense Technologies, Inc, priority 2004, published 2008)
Oligonucleotides are written 5' to 3', each unit as a sugar letter and its base; * is a phosphorothioate linkage, no mark a phosphodiester; rarer units and linkages stand in square brackets, end groups in braces. Plain capitals give the bases only. d = 2'-deoxy (DNA)

Key:
Test in all cases: Relative colony forming efficiency (Example 17, Table 13)
Type in all cases: cell-based, human
[1] = tested on: MDA PaCa-2 pancreatic cell carcinoma; details: MIA PaCa-2 pancreatic cell carcinoma; averages of 2-8 determinations
Procedure: (§1) Colony forming efficiency was determined using standard protocols. […] The test oligonucleotides were added to cell cultures in the presence of 2.5 μg of DOTMA/DOPE (Lipofectin; Life Technologies, Inc.) for four hours. The oligonucleotide was tested at 0.2 μM unless otherwise indicated. Controls were the cultures treated with lipofectin but without the oligonucleotide. […] Surviving cells were visualized by methylene blue staining, and colonies were scored. In some experiments cell aliquots were removed from the culture and viability was determined using the trypan blue exclusion test. Results were analyzed as percent of surviving cells compared to control cells. To test the antisense effects of many of these sequences as phosphorthioate deoxyribonucleotides, they were examined in relative colony forming experiments conducted as described in Example 16 with a series of human tumour cell lines. The results (shown as % inhibition of colony forming ability) obtained with cancer cells derived from the bladder, breast, lung, colon, pancreas, prostate, liver and cervix, are shown in Table 13. The specific cell lines employed are as follows: […]

[2] = tested on: HepG2 hepatocellular carcinoma; details: averages of 2-8 determinations
Procedure: as §1

[3] = tested on: T24 bladder cell carcinoma; details: averages of 2-8 determinations
Procedure: as §1

[4] = tested on: HCT116 colon cell carcinoma; details: averages of 2-8 determinations
Procedure: as §1

A549 lung cell carcinoma = details: averages of 2-8 determinations
Procedure: as §1

[5] = tested on: PC-3 prostrate cell adenocarcinoma; details: averages of 2-8 determinations
Procedure: as §1

| Substance | Reduced relative colony forming efficiency, MIA PaCa-2 (% inhibition of colony forming ability) [1] | Reduced relative colony forming efficiency, HepG2 (% inhibition of colony forming ability) [2] | Reduced relative colony forming efficiency, T24 (% inhibition of colony forming ability) [3] | Reduced relative colony forming efficiency, HCT116 (% inhibition of colony forming ability) [4] | Reduced relative colony forming efficiency, A549 (% inhibition of colony forming ability) (A549 lung cell carcinoma) | Reduced relative colony forming efficiency, PC-3 (% inhibition of colony forming ability) [5] |
| --- | --- | --- | --- | --- | --- | --- |
| AAGCGGCGGGGGTTTTCTCT (antisense dA*dA*dG*dC*dG*dG*dC*dG*dG*dG*dG*dG*dT*dT*dT*dT*dC*dT*dC*dT) [AS-II-414-20] | 36.11% | 30.89% | 11.67% | 19.1% | 12.44% | 60.94% |
| ACTGCCATTGTCACTGCTAT (antisense dA*dC*dT*dG*dC*dC*dA*dT*dT*dG*dT*dC*dA*dC*dT*dG*dC*dT*dA*dT) [AS-II-1581-20] | 24.07% | 93.07% | 68.22% | 66.85% | 90.55% | 85.83% |
| AGCCTCTGCCTTCTTATACA (antisense dA*dG*dC*dC*dT*dC*dT*dG*dC*dC*dT*dT*dC*dT*dT*dA*dT*dA*dC*dA) [AS-II-472-20] | 97.13% |  | 69.26% | 67.23% | 96.99% | 90.7% |
| AGCTGCTGCGGGTCCGTGAT (antisense dA*dG*dC*dT*dG*dC*dT*dG*dC*dG*dG*dG*dT*dC*dC*dG*dT*dG*dA*dT) [AS-II-225-20] | 95.44% |  | 73.23% | 59.5% |  | 30.06% |
| AS-II-134220 (antisense dG*dA*dA*dG*dT*dC*dA*dG*dC*dA*dT*dC*dC*dA*dA*dG*dG*dT*dA*dA) | 73.77% | 82.2% | 59.76% | 73.74% | 65.67% | 89.84% |
| ATCCAGCGCAAGGCCCAGTC (antisense dA*dT*dC*dC*dA*dG*dC*dG*dC*dA*dA*dG*dG*dC*dC*dC*dA*dG*dT*dC) [AS-II-816-20] | 93.21% | 93.08% | 73.91% | 88.22% | 78.4% | 94.08% |
| ATGGTACTCGATGGGGAAGA (chemistry not given here) [AS-II-439-20] | 92.69% | 73.04% | 67.84% | 64.7% | 76.46% | 77.66% |
| CAAATGGGTTCTCTACTCTG (antisense dC*dA*dA*dA*dT*dG*dG*dG*dT*dT*dC*dT*dC*dT*dA*dC*dT*dC*dT*dG) [AS-II-1217-20] | 34.85% |  | 66.36% | 68.68% | 91.49% | 81.03% |
| CCAGCACTATAAACAGACAG (antisense dC*dC*dA*dG*dC*dA*dC*dT*dA*dT*dA*dA*dA*dC*dA*dG*dA*dC*dA*dG) [AS-II-1517-20] |  |  |  |  |  | 91.75% |
| CCGTGGGCTCCTGGAAGATC (antisense dC*dC*dG*dT*dG*dG*dG*dC*dT*dC*dC*dT*dG*dG*dA*dA*dG*dA*dT*dC) [AS-II-344-20] |  |  |  |  |  | 80.06% |
